Columns and labels:
[1] = tested on: brain myelination (myelin water fraction); experiment: Cross-sectional correlation of infant formula nutrient content with brain myelination (myelin water fraction, mcDESPOT MRI); assay type: in vivo, human; conditions: children up to 5 years fed infant formulas
Description: MRI (Magnetic Resonance Imaging): MRI brain scans of infants and children between 0 and 5 years were acquired using a white matter imaging technique. This technique provides a quantitative measure, the Myelin Water Fraction (MWF), which is a surrogate marker of myelin content in the brain. When mapped as a function of time across early childhood, myelination trajectories can be generated.
Infant formula composition: six infant formulas fed to infants participating in a study were analyzed for their composition/level of myelin-relevant nutrients.
Each infant was scanned using the mcDESPOT (multicomponent Driven Equilibrium Single Pulse Observation of T1 and T2) white matter imaging technique Deoni et al. (Magn. Reson. Med. 2008, 60:1372-1387), which provides a quantitative measure of the myelin water fraction (MWF)—a measure of myelin content—at each point throughout the brain. All infants were scanned during natural (i.e. non-sedated) sleep using acoustically-muffled mcDESPOT imaging protocols. Total imaging times ranged from 19 minutes for the youngest toddlers to 24 minutes for the older 4 year-old children.
Following image alignment, non-brain signal removal, and correction for main and transmit magnetic field (B0 and B1) inhomogeneities, a three-pool signal model (comprising the myelin-associated water; intra-extra axonal water; and a non-exchanging free-water pool) was fit to the mcDESPOT data to derive voxel-wise MWF maps.
Each child's map was then non-linearly aligned to a study specific template. White matter masks, corresponding to 5 bilateral regions (frontal, temporal, occipital, parietal, and cerebellar WM) as well as the body, genu, and splenium of the corpus callosum were created from common databases, registered to the common template, and superimposed onto each child's MWF map. Mean values for each region were then determined for each child and used for subsequent developmental analysis and trajectory modeling.
From the cohort described above, children up to 5 years of age that were fed different infant formulas during infancy were included in a large correlation analysis to examine the relationship between formula nutrient composition and brain myelination. The 6 most frequently used formulas in that cohort were analyzed for their nutritional composition. A single general linear model (GLM) was constructed that modeled all quantified nutrients and child age.
Spearman rank correlations were then calculated between the nutrient content and myelin content value (adjusted for child age) at each image voxel, or point within the brain. Significance was defined as p<0.05 corrected for type 1 error using a cluster based correction approach. An association or trend was defined as p<0.15. […] To reduce the number of nutritional components in the model, we examined the inter-nutritional correlation. Using a conservative threshold of 0.9, we excluded nutritional components that were highly correlated with each other across the various formulas.

[2] = tested on: neural progenitor cell (NPCs) from E14 mouse neocortex; experiment: Differentiation assay: quantification of neuronal and glial marker expression in monolayer NPC culture; assay type: cell-based; conditions: 9 d culture; for astrocyte cell density (astrocytic): GFAP normalized to DAPI
Description: Generation of neural progenitor cell (NPCs) libraries: dissociation of E14 mouse neocortex E14 pup brains were harvested and placed in ice cold DPBS(1×)+10% Pen/Strep, then they were dissected using a dissecting microscope. From each pup, one brain hemisphere was placed in 2 ml of Neurobasal media/10% P/S/10× Hepes and another brain hemisphere was placed in another tube. The tissue from each tube was aseptically and manually dissociate into single cells, neurobasal complete medium was added and centrifuged at […] for 5 min. The tissue was then re-suspended in neurobasal complete media with GF and placed in a corning suspension culture dish 100 mm×20 mm (#430591). […] Plating Cells in 24 Well Plate for Monolayer Differentiation or EdU Incorporation Assays 24 well glass bottom plates (Mat Tek […]-1.0-13-F Case, glass bottom 24 well plates) were coated with poly-L-ornithin (Sigma P4957) and Fibronection (Sigma F1141) before use in the assay below. Cells were plated (10,000 cells per well) in Complete media with GF for 24 hours (500 ul per well). […] Differentiation Assay: Quantification of Neuronal, Glial and NPC Marker Expression After 24 hours, it was ensured that cells were attached to the plate, then the medium was carefully removed. […] Note: medium contains no GF. […] The cells were culture for 9 d in media plus 2% Nu Serum, the medium was changed every 2nd day. For fixation and subsequent immunohistochemical analysis the medium was removed, the cells were rinsed once with 1×PBS for 5 min, and fixed with 4% PFA in 1×PBS for 15 min at 4° C. The cells were then washed twice with 1×PBS for 5 min, left in 1×PBS, wrapped in foil and left overnight at 4C, or they were immediately primary antibody staining was carried out. PBS was removed and enough AB staining solution (1% Goat serum, 1×PBS, and 0.1% triton X) was added to cover the bottom, the block was kept at room temp for 1 hour. Primary antibody dilutions were made in appropriate amount of AB staining solution, 250 ul per well (the antibodies were only kept out on ice for a short time, mouse anti-MAP2 or TUJ1 1:500 (neuron marker), rabbit anti-GFAP (glial marker) 1:1000, chicken anti-Nestin CFP (EGFP antibody (progenitor cell marker)) 1:1000. AB staining solution was removed and a solution of primary antibodies was added to each chamber. The cells were wrapped in foil and kept overnight 4° C. The cells were then washed with 400 ul of AB staining solution for 5 min once to remove primary antibodies. Secondary antibody solutions were made (enough for 250 ul of each chamber) (Goat anti-mouse alexa 488 1:2000, anti-rabbit Cy3 (1:500), anti-chicken alexa 647 1:500, and 1:5000 Dapi). The cells were incubated at room temp for 1 hour in the dark and washed 2 time in AB staining solution for five mins. They were then kept at 4° C. or Imaged using a GE Cytell imager or LSM 710, Zeiss confocal microscope and analyze with ImageJ software (National Institutes of Health). Microtubule-Associated Protein 2 (MAP2), Neuronal Beta-Tubulin III(TuJ1), Glial Fibrillary Acidic Protein (GFAP), and Nestin CFP (EGFP Antibody). Each marker expression was measured on collected images (integrated density measure in ImageJ) and normalized to DAPI fluorescence, marking all nuclei (integrated density measure). Octanoic Acid were labeled with neuronal beta-tubulin III (TuJ1), subsequent compounds were labeled with Microtubule-associated protein 2 (MAP2).

[3] = tested on: neural progenitor cell (NPCs) from E14 mouse neocortex; experiment: Neurosphere counts in 96-well plates; assay type: cell-based; conditions: Low (Dose 1: 10 nM); cells grown 2 days
Description: Generation of neural progenitor cell (NPCs) libraries:
E14 pup brains were harvested and placed in ice cold DPBS(1×)+10% Pen/Strep, then they were dissected using a dissecting microscope. From each pup, one brain hemisphere was placed in 2 ml of Neurobasal media/10% P/S/10× Hepes and another brain hemisphere was placed in another tube.
The tissue from each tube was aseptically and manually dissociate into single cells, neurobasal complete medium was added and centrifuged at 130G for 5 min. The tissue was then re-suspended in neurobasal complete media with GF and placed in a corning suspension culture dish 100 mm×20 mm (#430591). Cells were passage twice using a 1:3 ratio, after what they were centrifuged (130 g 5 min), resuspended in freezing media (10% DMSO and neurobasal complete media, no GF) and frozen in liquid nitrogen (LN2).
Plating Cells in 96-Well Plates for Neurosphere Counts and Diameters Only
3-4 mLs of cells were taken out of the tilted plate and add to a 15 ml conical. Some of the remaining media was used to rinse down the plate. All remaining media was drawn up and put into a 15 ml conical tube, and Spun at 130G for 5 min. All media was removed. […]
1. […] Imaging was carried out using a GE Cytell imager or LSM 710, Zeiss confocal microscope and the diameters of neurospheres with ImageJ software (National Institutes of Health) was analysed.

[4] = tested on: neural progenitor cell (NPCs) from E14 mouse neocortex; experiment: Monolayer culture NPC proliferation assay (EdU incorporation / DAPI); assay type: cell-based; conditions: lowSM (Dose 1: 10 nM); 3 days culture
Description: Monolayer Culture NPC Proliferation Assay (Incorporation of EdU—S Phase Marker)
After 24 h, it was ensured that cells had attached to the plate then the medium was carefully removed. 500 μL of compound media plus GF. was added. The cells were cultured for 3 days in appropriate media.
Control and compound media was made with #2 media and contains 29 uM Choline, Low (5 uM) and medium (70 uM) choline media was made with #3 media.
EDU incorporation was measured using Click-IT® EdU Alexa Fluor® 555 Imaging Kit (Life technologies, #c10338).
At the end of day 3 EdU was added to each well at 10 μM for 30 minutes prior to fixation.
For fixation and subsequent immunohistochemical analysis, the medium was removed, the cells were rinsed once with 1×PBS for 5 min, and fixed with 4% PFA in 1×PBS for 15 min at 4° C., then the cells were washed twice with 1×PBS for 5 min, left in 1×PBS, wrapped in foil and leave overnight at 4° C., or staining was proceeded with.
PBS was removed and enough AB staining solution (1% Goat serum, 1×PBS, and 0.1% triton X) added to cover the bottom, the block was kept at room temp for 1 hour. The cells were stained for EDU. The cells were Incubated for 30 min at room temp, in the dark. The cells were washed with 1×PBS and stained with Dapi 1:5000 ul for 15 min. […]

## [P] [phosphorus]
[1]
  association of nutrient with myelination (myelin water fraction) over time in the brain: an association with myelination (myelin water fraction) was observed over time in the brain

## iron
[1]
  association of nutrient with myelination (myelin water fraction) over time in the brain: an association with myelination (myelin water fraction) was observed over time in the brain

## phosphatidylinositol
[1]
  association of nutrient with myelination (myelin water fraction) over time in the brain: an association with myelination (myelin water fraction) was observed over time in the brain

## CCCCCCCC(=O)O [Octanoic acid, Octanoic Acid]
[2]; HighOA (Dose 3: 250 μM)
  astrocyte cell density (astrocytic): 7.9
[2]; HighOA (Dose 3: 250 μM), TuJ1 normalized to DAPI
  Neuronal Cell density (Neuronal): 1.7
[2]; lowOA (Dose 1: 10 μM)
  astrocyte cell density (astrocytic): 3.7
[2]; lowOA (Dose 1: 10 μM), TuJ1 normalized to DAPI
  Neuronal Cell density (Neuronal): 1.2
[2]; medOA (Dose 2: 50 μM)
  astrocyte cell density (astrocytic): 6.1
[2]; medOA (Dose 2: 50 μM), TuJ1 normalized to DAPI
  Neuronal Cell density (Neuronal): 1.8

## phosphatidylcholine
[1]
  association of nutrient with myelination (myelin water fraction) over time in the brain: an association with myelination (myelin water fraction) was observed over time in the brain

## [Mg+2] [magnesium]
[1]
  association of nutrient with myelination (myelin water fraction) over time in the brain: an association with myelination (myelin water fraction) was observed over time in the brain

## Sphingomyelin
[3]
  number of neurospheres, Average (Mean): 94
[4]
  neuronal proliferation (DAPI): 280
[1]
  association of nutrient with myelination (myelin water fraction) over time in the brain: an association with myelination (myelin water fraction) was observed over time in the brain

## [Zn] [zinc]
[1]
  association of nutrient with myelination (myelin water fraction) over time in the brain: an association with myelination (myelin water fraction) was observed over time in the brain

## CCCCCCCCCCCCCCCCCC(=O)O [Stearic acid, Stearic Acid]
[2]; highSA (Dose 3: 10 μM)
  astrocyte cell density (astrocytic): 0.85
[2]; highSA (Dose 3: 10 μM), MAP2 normalized to DAPI
  Neuronal Cell density (Neuronal): 0.64
[2]; lowSA (Dose 1: 100 nM)
  astrocyte cell density (astrocytic): 0.68
[2]; lowSA (Dose 1: 100 nM), MAP2 normalized to DAPI
  Neuronal Cell density (Neuronal): 0.54
[2]; medSA (Dose 2: 1 μm)
  astrocyte cell density (astrocytic): 0.81
[2]; medSA (Dose 2: 1 μm), MAP2 normalized to DAPI
  Neuronal Cell density (Neuronal): 0.66

## [Ca+2] [calcium]
[1]
  association of nutrient with myelination (myelin water fraction) over time in the brain: an association with myelination (myelin water fraction) was observed over time in the brain

## vitamin B12
[1]
  association of nutrient with myelination (myelin water fraction) over time in the brain: an association with myelination (myelin water fraction) was observed over time in the brain

## CCCCC/C=C\C/C=C\C/C=C\C/C=C\CCCC(=O)O [AA, arachidonic acid]
[1]
  association of nutrient with myelination (myelin water fraction) over time in the brain: an association with myelination (myelin water fraction) was observed over time in the brain
